Here are results for one compound from article PMC7429951 (Journal of Medicinal Chemistry, 2020).

One data set addresses T1, MMP-1 (Homo sapiens, UniProt P03956).
T1 sequence (P03956 100-469): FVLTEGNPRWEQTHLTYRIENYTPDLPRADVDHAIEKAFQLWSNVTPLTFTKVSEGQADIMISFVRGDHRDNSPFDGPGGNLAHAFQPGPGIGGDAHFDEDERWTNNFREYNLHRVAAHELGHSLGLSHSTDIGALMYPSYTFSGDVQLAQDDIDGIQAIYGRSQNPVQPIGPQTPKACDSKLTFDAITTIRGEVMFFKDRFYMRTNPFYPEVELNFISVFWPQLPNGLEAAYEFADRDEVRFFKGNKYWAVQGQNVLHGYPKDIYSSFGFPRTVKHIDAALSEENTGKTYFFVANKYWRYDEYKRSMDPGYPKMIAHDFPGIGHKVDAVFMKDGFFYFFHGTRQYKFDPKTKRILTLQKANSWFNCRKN
In words: MMP-1 off-target inhibition. Type of data set: biochemical. Particulars: read-out: MMP-1 % inhibition @ 100 μM; 100 μM compound. The text has this:
(§1) Previously, we described N-aryl mercaptoacetamides with high selectivity for the bacterial over a broad range of human MMPs.[29],[30] MMPs are calcium-dependent zinc metalloproteases that play a pivotal role in numerous biochemical processes in humans.[39],[40] Based on the depth of their S1′ binding pocket, MMPs can be divided into three classes: deep (e.g., MMP-3 and -14), intermediate (e.g., MMP-2 and -8), and shallow (e.g., MMP-1 and -7). With the aim to explore the interactions of our inhibitors with all three pocket types, which could help us to assess potential effects on other not-tested representatives, we chose a panel of six MMPs, comprising two members of each class. In addition, HDAC-3, HDAC-8, and TACE (ADAM-17)—enzymes involved in gene expression and the processing of TNF-α,[41],[42] respectively—were selected as important additional human off-targets.

Another data set deals with T2, TACE (ADAM-17) (Homo sapiens, UniProt P78536).
T2 construct: purchased Sigma-Aldrich (Saint Louis, MO)
T2 sequence (P78536 215-824): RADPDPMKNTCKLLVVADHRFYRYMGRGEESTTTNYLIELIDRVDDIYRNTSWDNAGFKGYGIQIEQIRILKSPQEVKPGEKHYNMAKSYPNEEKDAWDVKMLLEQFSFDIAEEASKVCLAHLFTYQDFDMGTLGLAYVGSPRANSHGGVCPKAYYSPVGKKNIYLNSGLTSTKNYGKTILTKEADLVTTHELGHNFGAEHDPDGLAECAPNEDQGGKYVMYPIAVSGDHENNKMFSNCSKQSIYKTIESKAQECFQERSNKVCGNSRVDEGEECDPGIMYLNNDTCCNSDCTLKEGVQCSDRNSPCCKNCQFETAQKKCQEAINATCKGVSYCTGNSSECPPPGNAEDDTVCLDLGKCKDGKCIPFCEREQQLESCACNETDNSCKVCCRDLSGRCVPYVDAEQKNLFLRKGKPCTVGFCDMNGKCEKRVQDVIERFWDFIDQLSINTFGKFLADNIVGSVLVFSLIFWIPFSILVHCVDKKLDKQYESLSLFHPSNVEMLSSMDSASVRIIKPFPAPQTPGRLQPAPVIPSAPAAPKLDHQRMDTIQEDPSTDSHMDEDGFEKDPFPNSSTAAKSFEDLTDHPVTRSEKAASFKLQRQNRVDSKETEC
The experiment in a line: TACE inhibitor screening kit. The data set is classed as biochemical.
Description: as §1

Another data set has as its target T3, HDAC-3 (Homo sapiens, UniProt O15379).
T3 construct: purchased Sigma-Aldrich (Saint Louis, MO)
The experiment in a line: HDAC-3 inhibitor screening kit. The data set is classed as biochemical.
Description: as §1

The subject of data set [1] is C. histolyticum strain DSM 1126. In words: Bacterial growth inhibition assay (MIC) C. histolyticum. The data set is classed as cell-based, Clostridium histolyticum. The note with it: strain DSM 1126, BHI medium, 48 h anaerobic.
The target in another data set is T4, MMP-7 (Homo sapiens, UniProt P09237).
T4 sequence (P09237 95-267): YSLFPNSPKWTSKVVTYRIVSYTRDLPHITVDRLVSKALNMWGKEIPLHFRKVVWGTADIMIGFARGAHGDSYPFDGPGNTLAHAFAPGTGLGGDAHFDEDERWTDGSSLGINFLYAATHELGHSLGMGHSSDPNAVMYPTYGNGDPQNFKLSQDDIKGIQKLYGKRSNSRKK
The experiment in a line: MMP-7 off-target inhibition. Type of data set: biochemical. Particulars: read-out: MMP-7 % inhibition @ 100 μM; 100 μM compound.
Description: as §1

The next data set can be described thus: in vitro. Particulars: human, A549 cells (lung carcinoma).
In data set [2] the target is T5, LasB (Pseudomonas aeruginosa, UniProt Q02RJ6). The note with it: vs 4-OMe analogue.
T5 sequence (Q02RJ6 198-498): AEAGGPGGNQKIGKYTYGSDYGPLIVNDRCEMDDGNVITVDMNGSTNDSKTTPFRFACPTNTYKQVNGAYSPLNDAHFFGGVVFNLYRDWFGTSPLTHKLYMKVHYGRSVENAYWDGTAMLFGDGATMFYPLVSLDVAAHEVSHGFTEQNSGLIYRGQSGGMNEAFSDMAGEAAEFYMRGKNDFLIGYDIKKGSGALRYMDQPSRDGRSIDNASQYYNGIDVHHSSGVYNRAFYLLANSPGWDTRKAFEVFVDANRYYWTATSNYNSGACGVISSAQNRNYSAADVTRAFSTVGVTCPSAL
The target in data set [3] is T5, LasB. The experiment in a line: biochemical. The note with it: LasB IC50, FRET-based assay.
For data set [4], the target named is collagenase unit of ColG (ColG-CU) (Hathewaya histolytica, UniProt Q9X721). The experiment in a line: biochemical. Also on record: species or system C. histolyticum. The note with it: read-out: ColG-CU % inhibition @ 100 μM.
Sequence of collagenase unit of ColG (ColG-CU) (Q9X721 111-786): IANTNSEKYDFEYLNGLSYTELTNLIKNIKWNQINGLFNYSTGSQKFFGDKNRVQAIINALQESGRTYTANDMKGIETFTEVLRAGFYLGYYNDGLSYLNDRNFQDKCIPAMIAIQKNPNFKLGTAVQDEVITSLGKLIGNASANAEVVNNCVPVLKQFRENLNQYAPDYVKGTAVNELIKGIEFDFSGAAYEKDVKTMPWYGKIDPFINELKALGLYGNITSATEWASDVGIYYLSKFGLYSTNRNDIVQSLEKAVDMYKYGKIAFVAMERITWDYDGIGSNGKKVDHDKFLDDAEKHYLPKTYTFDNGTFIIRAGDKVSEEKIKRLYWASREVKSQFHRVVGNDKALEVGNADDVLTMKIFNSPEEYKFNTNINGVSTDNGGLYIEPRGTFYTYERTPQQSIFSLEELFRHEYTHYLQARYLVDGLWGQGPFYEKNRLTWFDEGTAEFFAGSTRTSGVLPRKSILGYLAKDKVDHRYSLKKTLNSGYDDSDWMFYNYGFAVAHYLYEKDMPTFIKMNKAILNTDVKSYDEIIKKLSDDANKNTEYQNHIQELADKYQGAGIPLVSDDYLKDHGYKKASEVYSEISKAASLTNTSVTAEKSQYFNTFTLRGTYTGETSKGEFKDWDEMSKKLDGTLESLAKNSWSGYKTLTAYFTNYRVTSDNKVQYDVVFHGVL
The target of another data set is T6, MMP-2 (Homo sapiens, UniProt P08253).
T6 sequence (P08253 110-660): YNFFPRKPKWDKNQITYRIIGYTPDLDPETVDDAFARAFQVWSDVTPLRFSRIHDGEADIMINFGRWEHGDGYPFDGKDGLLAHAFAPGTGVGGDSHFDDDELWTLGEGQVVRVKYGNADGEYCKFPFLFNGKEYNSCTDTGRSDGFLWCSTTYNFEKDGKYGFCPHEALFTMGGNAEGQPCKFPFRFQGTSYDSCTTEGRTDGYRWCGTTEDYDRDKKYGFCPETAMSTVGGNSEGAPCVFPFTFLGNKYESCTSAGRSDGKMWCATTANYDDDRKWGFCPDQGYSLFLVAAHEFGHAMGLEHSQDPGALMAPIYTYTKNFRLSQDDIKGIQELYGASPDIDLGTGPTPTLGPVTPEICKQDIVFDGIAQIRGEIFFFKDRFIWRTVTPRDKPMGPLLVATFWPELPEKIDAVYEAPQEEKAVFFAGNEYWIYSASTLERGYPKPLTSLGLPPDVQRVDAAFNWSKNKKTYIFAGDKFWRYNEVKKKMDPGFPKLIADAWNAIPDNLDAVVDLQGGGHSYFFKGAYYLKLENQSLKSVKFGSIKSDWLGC
The experiment in a line: MMP-2 off-target inhibition. The data set is classed as biochemical.
Description: as §1

Bounds are passed on as bounds.

A word on the IC50: it is the concentration that gives 50% inhibition. A higher IC50 goes with weaker potency. By MIC is commonly meant the lowest concentration found to suppress growth. A lower MIC goes with a more susceptible organism.

T3 sequence (O15379 whole entry): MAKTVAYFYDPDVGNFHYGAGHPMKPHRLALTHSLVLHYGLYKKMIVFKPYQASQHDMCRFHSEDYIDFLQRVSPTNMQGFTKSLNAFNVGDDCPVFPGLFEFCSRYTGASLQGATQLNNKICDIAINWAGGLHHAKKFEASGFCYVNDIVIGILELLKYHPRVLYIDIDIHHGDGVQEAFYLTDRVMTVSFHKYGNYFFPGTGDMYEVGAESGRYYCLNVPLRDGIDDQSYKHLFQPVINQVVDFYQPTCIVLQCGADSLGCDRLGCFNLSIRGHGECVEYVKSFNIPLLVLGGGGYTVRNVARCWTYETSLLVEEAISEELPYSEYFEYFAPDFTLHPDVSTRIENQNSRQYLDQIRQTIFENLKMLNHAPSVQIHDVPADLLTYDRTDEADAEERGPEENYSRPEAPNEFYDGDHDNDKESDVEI
T3 sequence (Q9Y618 395-489 partner limits assumed): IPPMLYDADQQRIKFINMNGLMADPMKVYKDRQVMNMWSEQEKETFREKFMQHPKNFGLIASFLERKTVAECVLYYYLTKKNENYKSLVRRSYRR

As for `CC(=O)c1ccc(N2C(=O)CC(S)C2=O)cc1` (stereo not drawn) [Compound 25, 1-(4-Acetylphenyl)-3-mercaptopyrrolidine-2,5-dione], the inhibition at 100 µM on MMP-1 is under 10%; at MMP-7 it was under 10%; in [4], 100 ± 2%; on MMP-2 (read-out: MMP-2 % inhibition @ 100 μM, 100 μM compound) it was 14 ± 4%. For the same compound, the IC50 at TACE (ADAM-17) is 3.4 ± 1.2 µM; against HDAC-3, over 100 µM; in “in vitro”, over 100 µM; against LasB [3] it was 64 ± 7.5 µM. The MIC is over 100 µM in [1] (Hathewaya histolytica, DSM1126) and over 100 µM in data set [1]. The “times more active on LasB than its methoxy-analogue” value on LasB [2] is given as 1.7 times. Moreover, the inhibition at 50 µM at MMP-2 (50 µM compound, read-out: MMP-2 % inh @50µM) was under 10%.
